According to patent US9029110B2, “Method for producing functional microbially fermented tea extract containing polyphenol derivative” (Kabushiki Kaisha Riverson, priority 2009, dated 2015):

Legend:
[1] = system: 3T3-L1 adipocytes; test: Adiponectin secretion promoting effect, Western blotting of culture supernatant; type: cell-based; settings: for amount of adiponectin secreted (Mean, DMSO control = 100.00): differentiated 3T3-L1 adipocytes, 3 runs
Experimental: (§1) 3T3-L1 adipocytes can be allowed to grow and maintained in a 5% CO2 environment in high-glucose DMEM containing 50 U/ml penicillin, 50 μg/ml streptomycin, and 10% FCS. The 3T3-L1 cells were subcultured in a dish of 3.5 cm in diameter until confluent and then sufficiently differentiated into adipocytes by culture for another 2 days in the presence of insulin (10 μg/ml), dexamethasone (0.25 μM), and IBMX (3-isobutyl-1-methylxanthine) (0.5 mM). Teadenol A (10 μM) or DMSO (vehicle control) was added to the sufficiently differentiated 3T3-L1 adipocytes, and each culture supernatant was collected after 8, 24, 32, and 48 hours. The amount of adiponectin secreted was determined by Western blotting method.

[2] = system: PTP1B; test: PTP1B expression inhibitory effect, Western blotting; type: cell-based
Experimental: as §1
Teadenol A (10 μM) or DMSO (vehicle control) was added to the sufficiently differentiated 3T3-L1 adipocytes. After culture for 8, 24, 32, and 48 hours, the cells were collected, and the amount of PTP1B […] and the amount of α-tubulin were determined by Western blotting method.

[3] = Test of the functions of decreasing visceral fat and increasing adiponectin (method not described); settings: as a result of the test, no data shown
[4] = stated as 'can be confirmed', no data shown

SMILES	amount of adiponectin secreted (Mean, DMSO control = 100.00) ([1]; 10 μM, 8 h)	amount of adiponectin secreted (Mean, DMSO control = 100.00) ([1]; 10 μM, 24 h)	amount of adiponectin secreted (Mean, DMSO control = 100.00) ([1]; 10 μM, 32 h)	amount of adiponectin secreted (Mean, DMSO control = 100.00) ([1]; 10 μM, 48 h)	adiponectin secretion promoting activity ([1]; statistically significant difference in the samples after 24 and 48 hours, 10 μM)	PTP1B expression inhibitory activity ([2]; statistically significant difference in the samples after 32 hours, 10 μM, 3T3-L1 adipocytes)	function on adiponectin [3]	function on visceral fat [3]	adiponectin secretion promoting effect [1, 4]	PTP1B expression inhibitory effect [2, 4]
C=C1C=C(C(=O)O)O[C@@H]2Cc3c(O)cc(O)cc3O[C@H]12 [Teadenol A, teadenol A]	166.00	214.67	153.33	147.67	effective	effective	increasing adiponectin	decreasing visceral fat		
C=C1C=C(C(=O)O)O[C@@H]2Cc3c(O)cc(O)cc3O[C@@H]12 [Teadenol B, teadenol B]									effective	effective
